Assay results reported in paper PMC5377010 (International Journal for Parasitology: Drugs and Drug …, 2017).

T1: Thioredoxin Reductase (gTrxR) (Giardia duodenalis, UniProt E2RU27)
T1 sequence (E2RU27 1-314): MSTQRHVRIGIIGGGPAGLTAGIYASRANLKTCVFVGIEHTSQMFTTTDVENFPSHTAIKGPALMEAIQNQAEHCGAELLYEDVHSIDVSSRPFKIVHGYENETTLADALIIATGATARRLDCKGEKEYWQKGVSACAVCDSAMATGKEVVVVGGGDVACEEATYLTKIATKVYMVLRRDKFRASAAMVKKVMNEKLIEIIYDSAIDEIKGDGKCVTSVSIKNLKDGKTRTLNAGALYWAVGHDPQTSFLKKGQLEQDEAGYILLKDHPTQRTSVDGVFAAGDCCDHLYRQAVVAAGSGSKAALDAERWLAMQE

T2: Elongation Factor 1Bγ (gEF1Bγ) (Giardia duodenalis, UniProt A8BFR0)
T2 sequence (A8BFR0 1-402): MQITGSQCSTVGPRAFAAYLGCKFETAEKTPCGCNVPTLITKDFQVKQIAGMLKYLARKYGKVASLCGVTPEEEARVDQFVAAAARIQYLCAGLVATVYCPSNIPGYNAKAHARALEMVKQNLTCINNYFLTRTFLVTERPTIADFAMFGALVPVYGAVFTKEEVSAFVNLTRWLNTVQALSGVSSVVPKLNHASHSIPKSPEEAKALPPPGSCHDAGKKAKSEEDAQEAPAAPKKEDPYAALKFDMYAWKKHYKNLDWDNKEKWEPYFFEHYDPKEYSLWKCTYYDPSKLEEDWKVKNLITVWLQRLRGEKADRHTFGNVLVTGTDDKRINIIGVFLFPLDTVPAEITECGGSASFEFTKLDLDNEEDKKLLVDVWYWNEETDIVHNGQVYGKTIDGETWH

B1: Thioredoxin Reductase (gTrxR) (Giardia lamblia ATCC 50803) (protein)
chain: MSTQRHVRIGIIGGGPAGLTAGIYASRANLKTCVFVGIEHTSQMFTTTDVENFPSHTAIKGPALMEAIQNQAEHCGAELLYEDVHSIDVSSRPFKIVHGYENETTLADALIIATGATARRLDCKGEKEYWQKGVSACAVCDSAMATGKEVVVVGGGDVACEEATYLTKIATKVYMVLRRDKFRASAAMVKKVMNEKLIEIIYDSAIDEIKGDGKCVTSVSIKNLKDGKTRTLNAGALYWAVGHDPQTSFLKKGQLEQDEAGYILLKDHPTQRTSVDGVFAAGDCCDHLYRQAVVAAGSGSKAALDAERWLAMQE

Key:
[1] = molecular target: T1, Thioredoxin Reductase (gTrxR); assay: intrinsic protein fluorescence quenching; assay type: binding
[2] = molecular target: T2, Elongation Factor 1Bγ (gEF1Bγ); assay: intrinsic protein fluorescence quenching; assay type: binding
purified protein [3] = substrate: O=C(O)c1cc(SSc2ccc([N+](=O)[O-])c(C(=O)O)c2)ccc1[N+](=O)[O-]; assay: purified protein; details: FAD; NADPH site partially overlapping that of NBDHEX
purified protein [4] = substrate: NC(=O)C1=CN([C@@H]2O[C@H](COP(=O)(O)OP(=O)(O)OC[C@H]3O[C@@H](n4cnc5c(N)ncnc54)[C@H](OP(=O)(O)O)[C@@H]3O)[C@@H](O)[C@H]2O)C=CC1; assay: purified protein; details: FAD NADPH-binding domain

Molecule | Kd [1] [µM] | Kd [2] [µM] | Km (purified protein [3]) [µM] | Km (purified protein [4]) [µM]
O=[N+]([O-])c1ccc(SCCCCCCO)c2nonc12 [NBDHEX, 6-(7-nitro-2,1,3-benzoxadiazol-4-ylthio)hexanol] | 0.14 ± 0.05 | < 0.4 | – | –
B1 | – | – | 1500 ± 100 | 2.6 ± 0.6
